The values that follow come from patent US5747447A, “Stable polypeptide composition” (COR Therapeutics, priority 1995, dated 1998).

In assay [1] the target is ADP-induced human platelet aggregation (Homo sapiens, UniProt P05106+P08514). The experiment in a line: standard aggregation inhibition assay (ADP-induced human platelet aggregation). It is filed as cell-based. An excerpt:
2. Standard assays directly applied to platelet aggregation, such as those described by Gann, Z.-R., et al., J Biol Chem (1988) 263:19827-19832; Huang, T. F., et al., J Biol Chem (1987) 262:16157-16163; Biochemistry (1989) 28:661-666, cited above and incorporated herein by reference;

Assay [2] has as its target vitronectin receptor (Homo sapiens, UniProt P05106+P06756). The experiment in a line: plate assay, inhibition of vitronectin binding to vitronectin receptor. To be noted: at concentrations up to 1 uM. The source says:
The PAI assay systems further include characterization of the PAI specificity by binding inhibition assays identical to that above but substituting other adhesive proteins for Fg and other receptors for GP IIb-IIIa. In particular, inhibition of the binding of vitronectin to the vitronectin receptor; fibronectin to the fibronectin receptor; fibronectin to GP IIb-IIIa and fibrinogen and/or vWF to GP IIb-IIIa can be assessed. The adhesive protein and receptors for these assays are available in the art.

Assay [3] relates to M21 melanoma cells. The experiment in a line: M21 melanoma cell adhesion to vitronectin-coated plates. It is filed as cell-based. The protocol:
M21 melanoma cells were labelled with ^35 S-methionine, and then added to vitronectin-coated plates in the presence of the indicated concentrations of purified snake venom peptides. Cell attachment was measured by solubilizing the cells remaining after an incubation and wash, as previously describe.

ADP-induced human platelet aggregation, sequence (P08514 32-1039): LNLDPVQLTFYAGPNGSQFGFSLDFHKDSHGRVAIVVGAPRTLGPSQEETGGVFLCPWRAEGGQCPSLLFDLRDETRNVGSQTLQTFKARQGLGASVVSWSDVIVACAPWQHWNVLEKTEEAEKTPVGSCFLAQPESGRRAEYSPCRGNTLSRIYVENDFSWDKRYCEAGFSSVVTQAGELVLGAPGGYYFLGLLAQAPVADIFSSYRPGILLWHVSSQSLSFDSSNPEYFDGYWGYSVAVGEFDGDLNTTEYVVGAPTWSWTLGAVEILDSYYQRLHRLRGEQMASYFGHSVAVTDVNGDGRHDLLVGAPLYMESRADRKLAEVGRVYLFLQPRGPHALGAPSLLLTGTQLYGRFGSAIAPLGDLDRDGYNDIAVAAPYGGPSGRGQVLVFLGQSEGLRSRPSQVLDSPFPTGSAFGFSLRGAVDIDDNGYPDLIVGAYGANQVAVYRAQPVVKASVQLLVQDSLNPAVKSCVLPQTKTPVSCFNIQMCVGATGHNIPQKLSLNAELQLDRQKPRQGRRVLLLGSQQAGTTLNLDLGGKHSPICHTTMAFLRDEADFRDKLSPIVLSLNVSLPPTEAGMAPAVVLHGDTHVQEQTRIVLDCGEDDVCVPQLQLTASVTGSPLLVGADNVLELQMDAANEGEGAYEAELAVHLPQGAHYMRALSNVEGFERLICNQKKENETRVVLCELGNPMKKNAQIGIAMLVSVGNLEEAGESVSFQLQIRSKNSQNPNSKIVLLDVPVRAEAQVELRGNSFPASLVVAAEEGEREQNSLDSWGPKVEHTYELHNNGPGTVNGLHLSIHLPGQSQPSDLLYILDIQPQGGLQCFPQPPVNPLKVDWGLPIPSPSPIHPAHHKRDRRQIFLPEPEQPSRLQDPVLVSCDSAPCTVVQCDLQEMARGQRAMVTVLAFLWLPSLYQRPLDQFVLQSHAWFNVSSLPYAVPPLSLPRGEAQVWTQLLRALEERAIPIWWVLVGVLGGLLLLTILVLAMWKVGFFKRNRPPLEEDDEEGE
ADP-induced human platelet aggregation, sequence (P05106 27-788): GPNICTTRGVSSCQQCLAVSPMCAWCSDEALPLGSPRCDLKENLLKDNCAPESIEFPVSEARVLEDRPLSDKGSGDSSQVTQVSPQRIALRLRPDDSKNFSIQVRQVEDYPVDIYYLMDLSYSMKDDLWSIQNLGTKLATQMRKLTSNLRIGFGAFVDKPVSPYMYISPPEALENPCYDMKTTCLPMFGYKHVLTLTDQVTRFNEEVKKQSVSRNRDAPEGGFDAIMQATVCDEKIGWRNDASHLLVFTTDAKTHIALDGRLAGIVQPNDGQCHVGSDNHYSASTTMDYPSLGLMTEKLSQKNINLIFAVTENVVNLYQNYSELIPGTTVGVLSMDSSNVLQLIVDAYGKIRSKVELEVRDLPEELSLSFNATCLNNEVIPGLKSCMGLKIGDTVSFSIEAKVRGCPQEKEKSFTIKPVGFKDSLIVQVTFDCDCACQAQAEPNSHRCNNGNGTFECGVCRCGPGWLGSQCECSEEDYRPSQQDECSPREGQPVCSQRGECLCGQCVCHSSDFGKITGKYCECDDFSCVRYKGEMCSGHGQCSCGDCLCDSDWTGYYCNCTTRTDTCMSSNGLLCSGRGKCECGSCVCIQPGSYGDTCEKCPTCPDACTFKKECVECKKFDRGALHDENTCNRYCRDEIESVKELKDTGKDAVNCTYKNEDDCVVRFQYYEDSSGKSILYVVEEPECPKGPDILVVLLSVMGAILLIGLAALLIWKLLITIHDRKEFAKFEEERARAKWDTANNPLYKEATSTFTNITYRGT
vitronectin receptor, sequence (P06756 31-889 limits assumed): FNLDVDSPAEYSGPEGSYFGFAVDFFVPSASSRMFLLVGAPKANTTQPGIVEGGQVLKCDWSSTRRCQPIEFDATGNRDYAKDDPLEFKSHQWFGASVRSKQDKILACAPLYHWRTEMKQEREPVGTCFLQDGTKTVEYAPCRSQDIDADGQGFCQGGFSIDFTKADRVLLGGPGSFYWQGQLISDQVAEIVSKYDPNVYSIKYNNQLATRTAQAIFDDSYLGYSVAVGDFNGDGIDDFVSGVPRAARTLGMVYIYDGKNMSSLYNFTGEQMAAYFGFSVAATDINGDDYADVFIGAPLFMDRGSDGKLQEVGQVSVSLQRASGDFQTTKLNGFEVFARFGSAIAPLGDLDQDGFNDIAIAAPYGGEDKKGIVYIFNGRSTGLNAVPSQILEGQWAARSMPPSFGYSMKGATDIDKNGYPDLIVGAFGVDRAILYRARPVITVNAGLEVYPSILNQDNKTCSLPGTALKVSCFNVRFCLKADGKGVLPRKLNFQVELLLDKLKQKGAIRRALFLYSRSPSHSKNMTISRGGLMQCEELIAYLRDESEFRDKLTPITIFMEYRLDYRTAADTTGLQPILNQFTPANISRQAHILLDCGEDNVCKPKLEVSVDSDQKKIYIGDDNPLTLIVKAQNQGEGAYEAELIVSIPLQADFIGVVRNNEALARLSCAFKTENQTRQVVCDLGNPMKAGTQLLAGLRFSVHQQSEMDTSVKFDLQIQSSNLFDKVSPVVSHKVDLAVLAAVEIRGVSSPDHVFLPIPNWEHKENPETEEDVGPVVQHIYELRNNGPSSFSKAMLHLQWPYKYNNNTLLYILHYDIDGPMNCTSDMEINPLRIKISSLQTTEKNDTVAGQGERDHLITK
vitronectin receptor, sequence (P06756 891-1048 limits assumed): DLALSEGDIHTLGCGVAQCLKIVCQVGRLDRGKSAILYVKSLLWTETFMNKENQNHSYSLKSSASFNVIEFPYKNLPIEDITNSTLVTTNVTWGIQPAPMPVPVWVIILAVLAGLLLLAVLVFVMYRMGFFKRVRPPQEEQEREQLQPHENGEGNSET
vitronectin receptor, sequence (P05106 27-788): as the sequence (P05106 27-788) above

Consider “[E^28 L^41 C^64 ]barbourin (28-73) [Analog #1]”, for which the “platelet aggregation inhibition activity (in words)” value in assay [1] is listed as “potent inhibitors of platelet aggregation”. In addition, the “affinity for VnR (in words)” value in assay [2] is “relative lack of affinity”. For the same substance, the “M21 cell attachment to vitronectin (in words)” value in assay [3] is “Neither barbourin nor Peptide 1 (truncated barbourin) had a significant effect”.
